How the values were obtained:
SSc fibroblasts = test: Total collagen (hydroxyproline) in culture media of SSc fibroblasts; type: cell-based; conditions: for total collagen secretion into the culture media as measured by hydroxyproline: SSc dermal fibroblasts, 48 h, 100 μM or 10 μM compound (FIG. 5); for blocking collagen synthesis: in vitro, fibroblasts derived from scleroderma patients
Method: FIG. 5 is a set of graphs illustrating target validation studies. […] SSc dermal fibroblasts were treated for 48 h with 100 μM or 10 μM of compound, then media was collected and total collagen was measured by hydroxyproline. Samples were tested in triplicate across different patient samples and expressed as the mean±SEM (n=4). *p<0.0001, **p=0.02.
SSc fibroblasts were treated for 48 h with 1 nM compound, and then culture media was recovered and hydroxyproline was measured. Samples were tested in triplicate across different patient samples and expressed as the mean±SEM (n=3 independent patient samples).
SSc fibroblasts were cultured with selected molecules of the invention, and total collagen synthesis was assessed with hydroxyproline. […] KA862 and KA494 were selected for further in vitro evaluation.

[1] = tested on: normal fibroblasts stimulated with bleomycin; test: Bleomycin induced fibrosis in vitro model: normal fibroblasts stimulated with bleomycin, hydroxyproline in culture media; type: cell-based; conditions: for blocking collagen synthesis: in vitro, normal fibroblasts stimulated with 10 μM bleomycin; for IC50: Fibroblast, decreasing concentrations of compound against 10 μM bleomycin, 48 h, hydroxyproline in culture media (FIG. 9)
Method: FIG. 7 is a set of bar graphs illustrating the finding that compounds of the invention are effective against bleomycin induced fibrosis in an in vitro model. Top graph: normal fibroblasts stimulated with bleomycin (Bleo)+IL-1RA (n=3); bottom graph: normal fibroblasts stimulated with Bleo+KA862 (n=3).
FIG. 9 is a set of graphs illustrating the IC50 determination for KA521, KA222, KA306, and KA695. Decreasing concentrations of compound were tested against 10 μM bleomycin for 48 h and hydroxyproline measured in the culture media.
Without wishing to be limited by any theory, designing a focused screening library allows for the identification of analogs with favorable drug-like properties and binding efficacy against IL-1R. Compounds of interest may be tested in vitro using patient-derived scleroderma fibroblasts, normal fibroblasts treated with bleomycin to increase collagen synthesis, and in vivo in scleroderma animal models.
FIG. 7 illustrates the finding that compounds of the invention are effective against bleomycin induced fibrosis. Normal fibroblasts were treated with bleomycin and either IL-1RA or a compound of the invention, so as to inhibit collagen.

Structure (SMILES): O=C(CSc1nnc(Cc2csc(Nc3cccc(Cl)c3)n2)n1Cc1ccco1)OC1CCCCC1 [KA862, cyclohexyl 2-((5-((2-((3-chlorophenyl)amino)thiazol-4-yl)methyl)-4-(furan-2-ylmethyl)-4H-1,2,4-triazol-3-yl)thio)acetate]
- total collagen secretion into the culture media as measured by hydroxyproline (SSc fibroblasts): effective at reducing total collagen secretion
- blocking collagen synthesis (SSc fibroblasts): efficacious in blocking collagen synthesis
- blocking collagen synthesis [1]: efficacious in blocking collagen synthesis

Structure (SMILES): O=C(C[S+]([O-])CC(=O)N(CC(=O)NC1CCCCC1)c1cccc2ccccc12)Nc1ccc(F)cc1 (stereo not drawn) [KA494, N-(2-(cyclohexylamino)-2-oxoethyl)-2-((2-((4-fluorophenyl)amino)-2-oxoethyl)sulfinyl)-N-(naphthalen-1-yl)acetamide]
- total collagen secretion into the culture media as measured by hydroxyproline (SSc fibroblasts): effective at reducing total collagen secretion
- blocking collagen synthesis (SSc fibroblasts): efficacious in blocking collagen synthesis
- blocking collagen synthesis [1]: efficacious in blocking collagen synthesis

Structure (SMILES): COCCOC(=O)C1=C(C)NC2=C(C(=O)CCC2)C1c1cccc2ccccc12 (stereo not drawn) [KA695, 2-methoxyethyl 2-methyl-4-(naphthalen-1-yl)-5-oxo-1,4,5,6,7,8-hexahydroquinoline-3-carboxylate]
- IC50 [1]: ~1 nM

Structure (SMILES): O=C(C[S+]([O-])CC(=O)N(CC(=O)NC1CCCC1)Cc1ccccc1Cl)Nc1ccc2c(c1)OCO2 (stereo not drawn) [KA680, (N^2-({[2-(1,3-benzodioxol-5-ylamino)-2-oxoethyl]sulfinyl}acetyl)-N^2-(2-chlorobenzyl)-N-cyclopentylglycinamide)]
- total collagen secretion into the culture media as measured by hydroxyproline (SSc fibroblasts): effective at reducing total collagen secretion

Structure (SMILES): COc1cccc(NC(=O)Cn2nc(-c3ccncc3)nc2SCC(=O)NC2CCCC2)c1 [KA529, (2-[5-{[2-(cyclopentylamino)-2-oxoethyl]sulfanyl}-3-(4-pyridinyl)-1H-1,2,4-triazol-1-yl]-N-(3-methoxyphenyl)acetamide)]
- total collagen secretion into the culture media as measured by hydroxyproline (SSc fibroblasts): effective at reducing total collagen secretion

Structure (SMILES): O=C(CN(Cc1ccc2c(c1)OCO2)S(=O)(=O)c1ccc(S(=O)(=O)NC2CCCC2)cc1)Nc1ccccc1 [KA199, N^2-(1,3-benzodioxol-5-ylmethyl)-N^2-{[4-(cyclopentylsulfamoyl)phenyl]sulfonyl}-N-phenyl glycinamide]
- total collagen secretion into the culture media as measured by hydroxyproline (SSc fibroblasts): effective at reducing total collagen secretion

Structure (SMILES): COC(=O)C1=C(C)NC2=C(C(=O)CC(c3ccc(OC)c(OC)c3)C2)C1c1cccc2ccccc12 (stereo not drawn) [KA306, methyl 7-(3,4-dimethoxyphenyl)-2-methyl-4-(naphthalen-1-yl)-5-oxo-1,4,5,6,7,8-hexahydroquinoline-3-carboxylate]
- IC50 [1]: ~1 nM

Structure (SMILES): Cc1nn(-c2ccccc2)c2c1C(c1c(O)ccc3ccccc13)C(C#N)=C(N)O2 (stereo not drawn) [KA222, 6-amino-4-(2-hydroxynaphthalen-1-yl)-3-methyl-1-phenyl-1,4-dihydropyrano[2,3-c]pyrazole-5-carbonitrile]
- IC50 [1]: ~1 nM
